Results from PMC7265341, “Quantifying CDK inhibitor selectivity in live cells” (Nature Communications, 2020).
Like-named read-outs stand apart in the source and are kept apart here.

Tests used:
Assay type in all cases: binding
CDK1/Cyclin E1 = CDK1/Cyclin E1 (Homo sapiens, UniProt P06493); assay: NanoBRET live-cell target engagement, CDK1-NanoLuc/Cyclin E1 in HEK-293; settings: for inhibition at 10 µM: read-out: CDK1/E1 Inhibition at 10µM (%)
CDK2/Cyclin E1 = CDK2/Cyclin E1 (Homo sapiens, UniProt P24941); assay: NanoBRET live-cell target engagement, CDK2-NanoLuc/Cyclin E1 in HEK-293; settings: 10µM, read-out: CDK2/E1 Inhibition at 10µM (%)
CDK3/Cyclin E1 = CDK3/Cyclin E1 (Homo sapiens, UniProt Q00526); assay: NanoBRET live-cell target engagement, CDK3-NanoLuc/Cyclin E1 in HEK-293; settings: for inhibition at 10 µM: read-out: CDK3/E1 Inhibition at 10µM (%); for IC50: read-out: CDK3/E1 IC50
CDK3/Cyclin E1, sequence (Q00526 whole entry): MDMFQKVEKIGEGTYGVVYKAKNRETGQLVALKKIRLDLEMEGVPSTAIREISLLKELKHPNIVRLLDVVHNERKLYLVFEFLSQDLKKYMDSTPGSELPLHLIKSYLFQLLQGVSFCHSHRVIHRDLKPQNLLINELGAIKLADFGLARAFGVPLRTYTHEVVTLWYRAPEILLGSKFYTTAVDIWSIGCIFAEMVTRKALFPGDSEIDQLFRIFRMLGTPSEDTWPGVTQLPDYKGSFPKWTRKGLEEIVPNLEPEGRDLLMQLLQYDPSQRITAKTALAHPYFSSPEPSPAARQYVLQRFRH
CDK3/Cyclin E1, sequence (P24864 whole entry partner): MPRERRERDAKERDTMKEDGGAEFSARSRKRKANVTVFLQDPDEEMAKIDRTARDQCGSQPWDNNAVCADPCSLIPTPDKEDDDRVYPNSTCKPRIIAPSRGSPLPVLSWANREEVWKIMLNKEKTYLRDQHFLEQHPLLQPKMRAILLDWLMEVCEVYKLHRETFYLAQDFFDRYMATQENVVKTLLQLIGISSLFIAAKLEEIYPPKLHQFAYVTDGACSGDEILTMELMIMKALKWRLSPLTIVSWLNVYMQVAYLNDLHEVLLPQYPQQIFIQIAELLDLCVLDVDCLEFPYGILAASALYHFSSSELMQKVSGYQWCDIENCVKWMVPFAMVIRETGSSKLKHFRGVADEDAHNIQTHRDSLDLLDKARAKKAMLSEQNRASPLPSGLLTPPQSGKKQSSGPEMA

CDK4/Cyclin D1 = CDK4/Cyclin D1 (Homo sapiens, UniProt P11802); assay: NanoBRET live-cell target engagement, NanoLuc-CDK4/Cyclin D1 in HEK-293; settings: for inhibition at 10 µM: read-out: CDK4/D1 Inhibition at 10µM (%)
CDK4/Cyclin D1, sequence (P11802 whole entry): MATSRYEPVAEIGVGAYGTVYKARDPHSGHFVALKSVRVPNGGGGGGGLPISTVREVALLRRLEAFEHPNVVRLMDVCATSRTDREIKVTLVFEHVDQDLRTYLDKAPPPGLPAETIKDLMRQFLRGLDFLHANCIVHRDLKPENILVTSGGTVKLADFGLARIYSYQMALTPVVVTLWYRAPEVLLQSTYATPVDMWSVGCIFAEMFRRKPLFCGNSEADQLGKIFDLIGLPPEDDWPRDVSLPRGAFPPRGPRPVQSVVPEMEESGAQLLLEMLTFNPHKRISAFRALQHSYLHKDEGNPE
CDK4/Cyclin D1, sequence (P24385 whole entry partner): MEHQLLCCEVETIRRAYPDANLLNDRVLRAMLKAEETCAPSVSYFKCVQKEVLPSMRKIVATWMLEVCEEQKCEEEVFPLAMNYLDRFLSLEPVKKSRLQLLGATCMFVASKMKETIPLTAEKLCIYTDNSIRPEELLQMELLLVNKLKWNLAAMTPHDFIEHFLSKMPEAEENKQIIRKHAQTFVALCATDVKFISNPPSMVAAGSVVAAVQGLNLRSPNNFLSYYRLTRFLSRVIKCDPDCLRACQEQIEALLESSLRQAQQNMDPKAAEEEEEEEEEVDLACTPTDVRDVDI

CDK5/CDK5R1 = CDK5/CDK5R1 (Homo sapiens, UniProt Q00535); assay: NanoBRET live-cell target engagement, CDK5-NanoLuc/CDK5R1 in HEK-293; settings: for inhibition at 10 µM: read-out: CDK5/CDK5R1 Inhibition at 10µM (%)
CDK5/CDK5R1, sequence (Q00535 whole entry): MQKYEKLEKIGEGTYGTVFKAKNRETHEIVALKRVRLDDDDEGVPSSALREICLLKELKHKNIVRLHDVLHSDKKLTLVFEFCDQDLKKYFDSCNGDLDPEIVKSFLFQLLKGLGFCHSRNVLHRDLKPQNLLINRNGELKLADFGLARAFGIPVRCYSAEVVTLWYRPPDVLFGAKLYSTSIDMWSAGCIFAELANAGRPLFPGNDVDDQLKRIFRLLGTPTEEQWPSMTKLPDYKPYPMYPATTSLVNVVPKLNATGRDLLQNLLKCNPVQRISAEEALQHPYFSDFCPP
CDK5/CDK5R1, sequence (Q15078 whole entry partner): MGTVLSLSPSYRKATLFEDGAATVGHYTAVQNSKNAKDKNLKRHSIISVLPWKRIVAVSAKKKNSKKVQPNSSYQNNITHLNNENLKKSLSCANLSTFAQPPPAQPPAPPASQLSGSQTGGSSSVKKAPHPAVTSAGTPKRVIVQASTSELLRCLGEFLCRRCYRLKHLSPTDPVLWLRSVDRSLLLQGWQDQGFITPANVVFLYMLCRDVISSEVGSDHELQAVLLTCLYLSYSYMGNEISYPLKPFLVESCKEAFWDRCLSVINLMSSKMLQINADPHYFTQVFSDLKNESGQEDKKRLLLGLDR

CDK6/Cyclin D1 = CDK6/Cyclin D1 (Homo sapiens, UniProt Q00534); assay: NanoBRET live-cell target engagement, NanoLuc-CDK6/Cyclin D1 in HEK-293; settings: for inhibition at 10 µM: read-out: CDK6/D1 Inhibition at 10µM (%); for IC50: read-out: CDK6/D1 IC50
CDK6/Cyclin D1, sequence (Q00534 whole entry): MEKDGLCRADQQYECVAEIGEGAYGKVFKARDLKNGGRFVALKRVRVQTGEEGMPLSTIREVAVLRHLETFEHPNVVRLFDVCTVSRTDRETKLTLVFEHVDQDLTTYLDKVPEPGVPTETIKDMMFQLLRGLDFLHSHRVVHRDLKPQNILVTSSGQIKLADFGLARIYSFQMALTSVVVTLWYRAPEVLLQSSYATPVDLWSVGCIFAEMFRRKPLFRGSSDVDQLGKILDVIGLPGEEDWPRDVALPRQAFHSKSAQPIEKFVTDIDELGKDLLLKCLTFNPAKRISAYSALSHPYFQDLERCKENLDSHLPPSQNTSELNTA
CDK6/Cyclin D1, sequence (P24385 whole entry partner): as the sequence (P24385 whole entry partner) above

CDK7 = CDK7 (Homo sapiens, UniProt P50613); assay: NanoBRET live-cell target engagement, NanoLuc-CDK7 in HEK-293; settings: for inhibition at 10 µM: read-out: CDK7 Inhibition at 10µM (%); for IC50: read-out: CDK7 IC50
CDK7, sequence (P50613 whole entry): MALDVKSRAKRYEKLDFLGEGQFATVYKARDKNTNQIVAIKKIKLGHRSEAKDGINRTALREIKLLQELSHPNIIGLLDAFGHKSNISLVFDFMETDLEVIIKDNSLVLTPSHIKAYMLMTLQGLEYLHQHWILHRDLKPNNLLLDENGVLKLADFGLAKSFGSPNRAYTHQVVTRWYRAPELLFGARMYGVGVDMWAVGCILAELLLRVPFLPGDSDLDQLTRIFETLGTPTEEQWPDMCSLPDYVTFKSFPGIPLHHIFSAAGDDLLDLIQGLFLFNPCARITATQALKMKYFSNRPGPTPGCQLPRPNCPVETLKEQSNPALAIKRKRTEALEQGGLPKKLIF

CDK8/Cyclin C = CDK8/Cyclin C (Homo sapiens, UniProt P49336); assay: NanoBRET live-cell target engagement, NanoLuc-CDK8/Cyclin C in HEK-293; settings: 10µM, read-out: CDK8/C Inhibition at 10µM (%)
CDK8/Cyclin C, sequence (P49336 whole entry): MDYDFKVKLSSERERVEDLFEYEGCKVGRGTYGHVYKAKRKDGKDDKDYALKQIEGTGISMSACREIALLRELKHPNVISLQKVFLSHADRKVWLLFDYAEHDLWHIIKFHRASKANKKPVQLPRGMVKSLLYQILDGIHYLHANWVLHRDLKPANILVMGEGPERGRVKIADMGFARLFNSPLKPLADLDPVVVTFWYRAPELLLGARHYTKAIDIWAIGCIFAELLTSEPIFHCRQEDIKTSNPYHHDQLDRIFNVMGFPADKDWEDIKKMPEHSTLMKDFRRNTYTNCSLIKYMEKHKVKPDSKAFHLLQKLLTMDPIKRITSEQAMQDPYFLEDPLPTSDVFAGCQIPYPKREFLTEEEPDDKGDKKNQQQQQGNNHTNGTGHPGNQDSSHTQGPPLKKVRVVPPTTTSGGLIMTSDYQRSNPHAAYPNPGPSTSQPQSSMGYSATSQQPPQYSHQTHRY
CDK8/Cyclin C, sequence (P24863 whole entry partner): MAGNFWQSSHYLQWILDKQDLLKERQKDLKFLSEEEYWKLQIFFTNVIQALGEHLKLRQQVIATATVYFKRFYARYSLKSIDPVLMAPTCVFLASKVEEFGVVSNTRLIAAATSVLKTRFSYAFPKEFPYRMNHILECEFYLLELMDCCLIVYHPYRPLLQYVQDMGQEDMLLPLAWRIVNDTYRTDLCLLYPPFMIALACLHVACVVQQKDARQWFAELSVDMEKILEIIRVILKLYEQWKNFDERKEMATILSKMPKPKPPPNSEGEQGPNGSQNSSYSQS

CDK9/Cyclin K = CDK9/Cyclin K (Homo sapiens, UniProt P50750); assay: NanoBRET live-cell target engagement, NanoLuc-CDK9/Cyclin K in HEK-293; settings: 10µM, read-out: CDK9/K Inhibition at 10µM (%)
CDK9/Cyclin K, sequence (P50750 whole entry): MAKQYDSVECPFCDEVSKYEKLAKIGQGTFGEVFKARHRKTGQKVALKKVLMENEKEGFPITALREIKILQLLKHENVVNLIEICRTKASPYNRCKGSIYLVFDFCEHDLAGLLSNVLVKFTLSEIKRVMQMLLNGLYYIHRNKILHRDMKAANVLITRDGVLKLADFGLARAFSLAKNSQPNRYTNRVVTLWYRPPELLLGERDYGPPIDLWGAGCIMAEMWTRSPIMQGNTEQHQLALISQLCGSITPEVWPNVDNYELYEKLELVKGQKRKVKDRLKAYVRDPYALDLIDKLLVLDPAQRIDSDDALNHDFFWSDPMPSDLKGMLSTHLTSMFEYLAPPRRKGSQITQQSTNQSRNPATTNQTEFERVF
CDK9/Cyclin K, sequence (O75909 whole entry partner): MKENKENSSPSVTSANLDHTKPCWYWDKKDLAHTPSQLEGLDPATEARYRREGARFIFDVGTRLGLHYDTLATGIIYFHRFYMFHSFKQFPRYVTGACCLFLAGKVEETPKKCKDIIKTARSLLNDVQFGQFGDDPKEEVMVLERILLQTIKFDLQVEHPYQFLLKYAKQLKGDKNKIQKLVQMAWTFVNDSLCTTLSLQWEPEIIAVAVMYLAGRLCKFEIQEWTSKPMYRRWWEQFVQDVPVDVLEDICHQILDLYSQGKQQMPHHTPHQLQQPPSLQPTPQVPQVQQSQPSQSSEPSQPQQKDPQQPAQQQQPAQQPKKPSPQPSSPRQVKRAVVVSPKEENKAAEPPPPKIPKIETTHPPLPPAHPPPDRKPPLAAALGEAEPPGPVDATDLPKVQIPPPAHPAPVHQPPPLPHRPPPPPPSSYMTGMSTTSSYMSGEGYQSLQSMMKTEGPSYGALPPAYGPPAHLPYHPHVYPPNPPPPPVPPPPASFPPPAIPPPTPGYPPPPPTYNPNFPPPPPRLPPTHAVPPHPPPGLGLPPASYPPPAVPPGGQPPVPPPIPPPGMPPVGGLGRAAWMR

CDK1/Cyclin E1, sequence (P06493 whole entry): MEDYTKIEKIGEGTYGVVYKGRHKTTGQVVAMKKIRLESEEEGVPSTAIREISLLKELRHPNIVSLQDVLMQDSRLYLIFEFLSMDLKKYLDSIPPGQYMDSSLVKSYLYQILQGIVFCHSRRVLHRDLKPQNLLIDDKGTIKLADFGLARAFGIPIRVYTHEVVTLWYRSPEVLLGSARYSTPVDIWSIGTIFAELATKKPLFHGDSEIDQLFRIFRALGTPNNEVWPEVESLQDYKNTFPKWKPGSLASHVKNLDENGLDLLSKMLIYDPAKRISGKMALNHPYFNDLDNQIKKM
CDK1/Cyclin E1, sequence (P24864 whole entry partner): as the sequence (P24864 whole entry partner) above

inhibition at 10 µM (CDK1/Cyclin E1; average of experiments): 95.4%
inhibition at 10 µM (CDK1/Cyclin E1; independent experiment 1): 95%
inhibition at 10 µM (CDK1/Cyclin E1; independent experiment 2): 95.8%
IC50 (CDK1/Cyclin E1; average (± SEM where n=3), read-out: CDK1/E1 IC50): 200 nM
IC50 (CDK1/Cyclin E1; independent experiment 1, read-out: CDK1/E1 IC50): 200 nM
IC50 (CDK1/Cyclin E1; independent experiment 2, read-out: CDK1/E1 IC50): 210 nM
IC50 (CDK1/Cyclin E1; live HEK-293, 2 h, mean ± S.E.M. (n=3) or mean (n=2), read-out: IC50 for CDK/cyclin complexes, CDK1/E1): 200 nM
inhibition at 10 µM (CDK2/Cyclin E1; average of experiments): 96.5%
inhibition at 10 µM (CDK2/Cyclin E1; independent experiment 1): 98%
inhibition at 10 µM (CDK2/Cyclin E1; independent experiment 2): 95%
inhibition at 10 µM (CDK3/Cyclin E1; average of experiments): 97.1%
inhibition at 10 µM (CDK3/Cyclin E1; independent experiment 1): 98.4%
inhibition at 10 µM (CDK3/Cyclin E1; independent experiment 2): 95.9%
IC50 (CDK3/Cyclin E1; average (± SEM where n=3)): 44 nM
IC50 (CDK3/Cyclin E1; independent experiment 1): 45 nM
IC50 (CDK3/Cyclin E1; independent experiment 2): 43 nM
inhibition at 10 µM (CDK4/Cyclin D1; average of experiments): 99.8%
inhibition at 10 µM (CDK4/Cyclin D1; independent experiment 1): 100%
inhibition at 10 µM (CDK4/Cyclin D1; independent experiment 2): 99.2%
IC50 (CDK4/Cyclin D1; average (± SEM where n=3), read-out: CDK4/D1 IC50): 140 nM
IC50 (CDK4/Cyclin D1; independent experiment 1, read-out: CDK4/D1 IC50): 140 nM
IC50 (CDK4/Cyclin D1; independent experiment 2, read-out: CDK4/D1 IC50): 150 nM
IC50 (CDK4/Cyclin D1; live HEK-293, 2 h, mean ± S.E.M. (n=3) or mean (n=2), read-out: IC50 for CDK/cyclin complexes, CDK4/D1): 140 nM
inhibition at 10 µM (CDK5/CDK5R1; average of experiments): 93.3%
inhibition at 10 µM (CDK5/CDK5R1; independent experiment 1): 88.5%
inhibition at 10 µM (CDK5/CDK5R1; independent experiment 2): 98.1%
IC50 (CDK5/CDK5R1; average (± SEM where n=3), read-out: CDK5/CDK5R1 IC50): 180 nM
IC50 (CDK5/CDK5R1; independent experiment 1, read-out: CDK5/CDK5R1 IC50): 190 nM
IC50 (CDK5/CDK5R1; independent experiment 2, read-out: CDK5/CDK5R1 IC50): 180 nM
IC50 (CDK5/CDK5R1; live HEK-293, 2 h, mean ± S.E.M. (n=3) or mean (n=2), read-out: IC50 for CDK/cyclin complexes, CDK5/R1): 180 nM
inhibition at 10 µM (CDK6/Cyclin D1; average of experiments): 98.3%
inhibition at 10 µM (CDK6/Cyclin D1; independent experiment 1): 97.3%
inhibition at 10 µM (CDK6/Cyclin D1; independent experiment 2): 99.2%
IC50 (CDK6/Cyclin D1; average (± SEM where n=3)): 270 nM
IC50 (CDK6/Cyclin D1; independent experiment 1): 290 nM
IC50 (CDK6/Cyclin D1; independent experiment 2): 250 nM
inhibition at 10 µM (CDK7; average of experiments): 96.4%
inhibition at 10 µM (CDK7; independent experiment 1): 97.5%
inhibition at 10 µM (CDK7; independent experiment 2): 95.3%
IC50 (CDK7; average (± SEM where n=3)): 10 nM
IC50 (CDK7; independent experiment 1): 11 nM
IC50 (CDK7; independent experiment 2): 8.8 nM
inhibition at 10 µM (CDK8/Cyclin C; average of experiments): 72.3%
inhibition at 10 µM (CDK8/Cyclin C; independent experiment 1): 57.3%
inhibition at 10 µM (CDK8/Cyclin C; independent experiment 2): 87.3%
inhibition at 10 µM (CDK9/Cyclin K; average of experiments): 99.7%
inhibition at 10 µM (CDK9/Cyclin K; independent experiment 1): 100%
SMILES: CN1C/C=C/CCOc2cccc(c2)-c2ccnc(n2)Nc2cccc(c2)C1 [SB1317]
